Source: ChEMBL document CHEMBL2413012, “Inhibition of tumor-associated human carbonic anhydrase isozymes IX and XII by a new class of substituted-phenylacetamido aromatic sulfonamides” (Bioorg Med Chem, 2013)

These molecules were tested against Carbonic anhydrase 12 (Homo sapiens, UniProt O43570) (assay: Inhibition of human recombinant carbonic anhydrase 12 preincubated for 10 mins by CO2 hydration stopped-flow assay).
Chain of Carbonic anhydrase 12 (O43570 whole entry): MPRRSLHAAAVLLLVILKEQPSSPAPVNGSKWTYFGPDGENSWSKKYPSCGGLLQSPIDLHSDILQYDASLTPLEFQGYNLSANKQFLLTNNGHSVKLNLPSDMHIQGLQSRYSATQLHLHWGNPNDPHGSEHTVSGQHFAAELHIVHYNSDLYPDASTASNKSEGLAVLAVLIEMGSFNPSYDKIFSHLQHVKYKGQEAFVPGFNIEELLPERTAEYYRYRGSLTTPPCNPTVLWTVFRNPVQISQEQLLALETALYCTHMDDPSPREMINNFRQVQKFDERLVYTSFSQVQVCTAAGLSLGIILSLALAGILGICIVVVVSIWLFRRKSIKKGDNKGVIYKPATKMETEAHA

Row | SMILES | Ki
1 | NS(=O)(=O)c1ccc(CCNC(=O)Cc2ccc(Cl)cc2)cc1 | 3.4 nM
2 | COc1ccc(CC(=O)NCCc2ccc(S(N)(=O)=O)cc2)cc1 | 0.43 nM

Each molecule was assayed against Carbonic anhydrase 9 (Homo sapiens, UniProt Q16790) (assay: Inhibition of human recombinant carbonic anhydrase 9 preincubated for 10 mins by CO2 hydration stopped-flow assay).

Row | SMILES | Ki
3 | NS(=O)(=O)c1ccc(NC(=O)Cc2ccc(F)cc2)c(F)c1 | 7.2 nM
4 | NS(=O)(=O)c1ccc(NC(=O)Cc2ccc(Cl)cc2)cc1 | 72.5 nM
5 | COc1ccc(CC(=O)Nc2ccc(S(N)(=O)=O)cc2Cl)cc1 | 0.41 nM
6 | NS(=O)(=O)c1ccc(NC(=O)Cc2ccc(F)cc2)cc1 | 4.7 nM
7 | NS(=O)(=O)c1ccc(NC(=O)Cc2ccc(F)cc2)c(Cl)c1 | 10.1 nM
8 | COc1ccc(CC(=O)Nc2ccc(S(N)(=O)=O)cc2Br)cc1 | 0.62 nM
9 | COc1ccc(CC(=O)Nc2ccc(S(N)(=O)=O)cc2)cc1 | 0.32 nM
10 | NS(=O)(=O)c1ccc(NC(=O)Cc2ccccc2Br)c(Cl)c1 | 0.74 nM
11 | NS(=O)(=O)c1ccc(CCNC(=O)Cc2ccc(Cl)cc2)cc1 | 1.2 nM
12 | NS(=O)(=O)c1ccc(NC(=O)Cc2ccc(Cl)cc2)c(Br)c1 | 1.2 nM
13 | NS(=O)(=O)c1nnc(NC(=O)Cc2ccc(F)cc2)s1 | 2.1 nM
14 | NS(=O)(=O)c1ccc(CCNC(=O)Cc2ccccc2Br)cc1 | 0.57 nM
15 | NS(=O)(=O)c1ccc(NC(=O)Cc2ccc(F)cc2)c(Br)c1 | 5 nM
16 | NS(=O)(=O)c1ccc(NC(=O)Cc2ccccc2Br)c(F)c1 | 1.6 nM
17 | NS(=O)(=O)c1ccc(CNC(=O)Cc2ccc(Cl)cc2)cc1 | 0.53 nM
18 | NS(=O)(=O)c1ccc(CNC(=O)Cc2ccccc2Br)cc1 | 1 nM
19 | NS(=O)(=O)c1nnc(NC(=O)Cc2ccc(Cl)cc2)s1 | 1.3 nM
20 | NS(=O)(=O)c1ccc(NC(=O)Cc2ccc(Cl)cc2)c(Cl)c1 | 6.3 nM
21 | NS(=O)(=O)c1ccc(NC(=O)Cc2ccccc2Br)cc1 | 0.44 nM
22 | COc1ccc(CC(=O)Nc2ccc(S(N)(=O)=O)cc2F)cc1 | 1.8 nM
23 | COc1ccc(CC(=O)NCc2ccc(S(N)(=O)=O)cc2)cc1 | 0.45 nM
24 | COc1ccc(CC(=O)Nc2nnc(S(N)(=O)=O)s2)cc1 | 0.31 nM
25 | NS(=O)(=O)c1ccc(NC(=O)Cc2ccc(Cl)cc2)c(F)c1 | 7.8 nM
26 | NS(=O)(=O)c1ccc(NC(=O)Cc2ccccc2Br)c(Br)c1 | 0.52 nM
27 | NS(=O)(=O)c1ccc(CCNC(=O)Cc2ccc(F)cc2)cc1 | 6.5 nM
28 | NS(=O)(=O)c1nnc(NC(=O)Cc2ccccc2Br)s1 | 0.61 nM
29 | COc1ccc(CC(=O)NCCc2ccc(S(N)(=O)=O)cc2)cc1 | 0.25 nM
